In ChEMBL document CHEMBL5291721, “A preclinical secondary pharmacology resource illuminates target-adverse drug reaction associations of marketed drugs” (Nat Commun, 2023) one finds AC50 data, which are given here for 22 compounds.

Experiment [1] has as its target T1, Androgen receptor (Rattus norvegicus, UniProt P15207).
T1 sequence (P15207 whole entry): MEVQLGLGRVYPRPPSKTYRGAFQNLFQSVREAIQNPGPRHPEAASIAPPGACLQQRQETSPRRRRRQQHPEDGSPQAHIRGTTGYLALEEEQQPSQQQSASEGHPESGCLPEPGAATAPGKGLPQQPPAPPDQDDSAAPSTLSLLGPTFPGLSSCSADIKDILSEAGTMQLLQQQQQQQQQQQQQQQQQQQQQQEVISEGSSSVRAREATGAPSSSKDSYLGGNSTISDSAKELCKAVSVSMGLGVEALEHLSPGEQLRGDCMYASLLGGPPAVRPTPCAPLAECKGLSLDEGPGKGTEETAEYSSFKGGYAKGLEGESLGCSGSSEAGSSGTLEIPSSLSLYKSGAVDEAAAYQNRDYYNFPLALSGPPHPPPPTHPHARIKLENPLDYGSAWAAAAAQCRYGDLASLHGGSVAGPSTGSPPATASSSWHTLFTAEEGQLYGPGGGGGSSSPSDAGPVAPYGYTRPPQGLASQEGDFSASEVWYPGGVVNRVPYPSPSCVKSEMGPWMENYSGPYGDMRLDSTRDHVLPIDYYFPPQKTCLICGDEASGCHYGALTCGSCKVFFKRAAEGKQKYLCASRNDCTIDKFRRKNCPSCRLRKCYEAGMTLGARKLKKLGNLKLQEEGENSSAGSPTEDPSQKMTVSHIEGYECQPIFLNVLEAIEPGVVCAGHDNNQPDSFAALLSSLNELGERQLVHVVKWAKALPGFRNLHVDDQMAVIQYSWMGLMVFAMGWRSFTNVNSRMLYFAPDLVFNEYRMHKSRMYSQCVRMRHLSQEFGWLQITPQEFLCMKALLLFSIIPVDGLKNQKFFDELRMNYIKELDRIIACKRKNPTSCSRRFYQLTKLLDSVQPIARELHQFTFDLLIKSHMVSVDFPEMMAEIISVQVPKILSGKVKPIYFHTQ
In kind it is functional.

The target in experiment [2] is T1, Androgen receptor.
Experiment [3] deals with T2, Alpha-1A adrenergic receptor (Homo sapiens, UniProt P35348).
T2 sequence (P35348 whole entry): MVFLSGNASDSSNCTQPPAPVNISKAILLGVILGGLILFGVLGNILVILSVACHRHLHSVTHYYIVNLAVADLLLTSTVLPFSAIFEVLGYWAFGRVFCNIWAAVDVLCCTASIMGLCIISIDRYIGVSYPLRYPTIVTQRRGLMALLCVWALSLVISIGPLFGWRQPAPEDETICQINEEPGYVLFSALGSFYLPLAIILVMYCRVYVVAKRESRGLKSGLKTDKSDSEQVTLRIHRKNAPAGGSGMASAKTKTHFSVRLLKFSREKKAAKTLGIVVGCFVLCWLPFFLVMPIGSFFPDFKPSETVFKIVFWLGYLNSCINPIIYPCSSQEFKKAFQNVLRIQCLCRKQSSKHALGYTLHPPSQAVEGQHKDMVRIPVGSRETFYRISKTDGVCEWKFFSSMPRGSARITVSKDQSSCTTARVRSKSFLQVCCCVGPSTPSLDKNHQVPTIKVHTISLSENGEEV

The target of experiment [4] is T3, 5-hydroxytryptamine receptor 1A (Homo sapiens, UniProt P08908).
T3 sequence (P08908 whole entry): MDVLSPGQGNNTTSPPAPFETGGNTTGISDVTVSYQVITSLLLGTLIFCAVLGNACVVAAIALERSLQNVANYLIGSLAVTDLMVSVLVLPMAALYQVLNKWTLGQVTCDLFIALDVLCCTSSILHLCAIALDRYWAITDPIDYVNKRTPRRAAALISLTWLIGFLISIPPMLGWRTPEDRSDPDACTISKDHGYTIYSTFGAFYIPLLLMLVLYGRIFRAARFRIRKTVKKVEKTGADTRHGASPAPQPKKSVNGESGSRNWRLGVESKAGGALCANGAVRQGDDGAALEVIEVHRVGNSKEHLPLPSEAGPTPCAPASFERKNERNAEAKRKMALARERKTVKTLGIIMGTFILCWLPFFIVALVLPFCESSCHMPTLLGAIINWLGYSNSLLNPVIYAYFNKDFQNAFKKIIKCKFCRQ

The next experiment addresses T4, D(4) dopamine receptor (Homo sapiens, UniProt P21917).
T4 sequence (P21917 whole entry): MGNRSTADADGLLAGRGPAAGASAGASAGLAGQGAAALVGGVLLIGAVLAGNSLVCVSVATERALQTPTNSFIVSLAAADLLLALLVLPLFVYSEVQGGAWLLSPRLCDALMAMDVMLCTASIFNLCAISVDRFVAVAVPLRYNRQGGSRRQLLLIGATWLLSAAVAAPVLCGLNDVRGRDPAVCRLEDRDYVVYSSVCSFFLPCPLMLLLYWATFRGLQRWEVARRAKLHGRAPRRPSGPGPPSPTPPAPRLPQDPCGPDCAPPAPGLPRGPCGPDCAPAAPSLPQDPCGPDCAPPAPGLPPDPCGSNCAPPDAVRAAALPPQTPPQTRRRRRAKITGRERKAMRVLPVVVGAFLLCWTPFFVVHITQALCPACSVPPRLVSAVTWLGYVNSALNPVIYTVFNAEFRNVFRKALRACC

A further experiment concerns the target D(1A) dopamine receptor (Homo sapiens, UniProt P21728).
Experiment [5] addresses 5-hydroxytryptamine receptor 2B (Homo sapiens, UniProt P41595).
For experiment [6], the target named is T5, Neuropeptide Y receptor type 2 (Homo sapiens, UniProt P49146).
T5 sequence (P49146 whole entry): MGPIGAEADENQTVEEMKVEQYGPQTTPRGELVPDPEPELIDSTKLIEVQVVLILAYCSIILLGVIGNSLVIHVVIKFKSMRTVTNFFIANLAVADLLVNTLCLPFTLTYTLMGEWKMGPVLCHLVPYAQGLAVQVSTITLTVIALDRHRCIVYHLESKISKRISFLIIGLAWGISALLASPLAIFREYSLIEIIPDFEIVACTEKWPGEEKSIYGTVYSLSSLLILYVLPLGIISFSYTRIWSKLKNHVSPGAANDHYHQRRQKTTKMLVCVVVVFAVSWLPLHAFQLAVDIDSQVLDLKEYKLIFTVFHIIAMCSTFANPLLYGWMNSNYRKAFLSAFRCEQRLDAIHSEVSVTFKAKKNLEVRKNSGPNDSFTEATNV

The target in the next experiment is Glucagon receptor (Homo sapiens, UniProt P47871).
Chain of Glucagon receptor (P47871 whole entry): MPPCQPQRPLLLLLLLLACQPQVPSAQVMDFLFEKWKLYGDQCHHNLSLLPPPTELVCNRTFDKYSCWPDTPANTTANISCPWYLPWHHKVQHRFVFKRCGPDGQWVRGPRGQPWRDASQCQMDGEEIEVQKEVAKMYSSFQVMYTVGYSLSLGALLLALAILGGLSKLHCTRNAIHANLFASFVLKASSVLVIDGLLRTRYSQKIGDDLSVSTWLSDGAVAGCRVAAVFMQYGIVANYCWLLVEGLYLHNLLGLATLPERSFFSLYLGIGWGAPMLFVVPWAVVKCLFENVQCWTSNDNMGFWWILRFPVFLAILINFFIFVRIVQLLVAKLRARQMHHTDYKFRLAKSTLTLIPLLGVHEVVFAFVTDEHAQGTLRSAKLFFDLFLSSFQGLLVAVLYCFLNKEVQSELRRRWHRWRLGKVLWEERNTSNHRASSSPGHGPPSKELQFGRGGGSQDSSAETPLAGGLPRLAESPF
The target in experiment [7] is Beta-3 adrenergic receptor (Homo sapiens, UniProt P13945).
Chain of Beta-3 adrenergic receptor (P13945 whole entry): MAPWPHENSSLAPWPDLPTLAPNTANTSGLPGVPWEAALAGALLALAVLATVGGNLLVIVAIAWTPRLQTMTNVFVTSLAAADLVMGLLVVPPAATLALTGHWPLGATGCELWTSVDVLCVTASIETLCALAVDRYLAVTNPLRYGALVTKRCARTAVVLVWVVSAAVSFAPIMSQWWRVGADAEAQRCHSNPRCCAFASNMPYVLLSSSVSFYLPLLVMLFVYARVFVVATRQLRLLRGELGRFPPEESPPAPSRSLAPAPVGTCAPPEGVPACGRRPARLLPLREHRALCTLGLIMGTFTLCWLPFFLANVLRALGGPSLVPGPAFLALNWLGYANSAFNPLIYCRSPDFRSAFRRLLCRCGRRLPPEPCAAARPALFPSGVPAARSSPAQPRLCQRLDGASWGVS
Experiment [8] has as its target Voltage-dependent N-type calcium channel subunit alpha-1B (Rattus norvegicus, UniProt Q02294). In kind it is functional.

The structures appear in SMILES notation.
Also: assay procedure not described here.

Chain of Voltage-dependent N-type calcium channel subunit alpha-1B (Q02294 whole entry): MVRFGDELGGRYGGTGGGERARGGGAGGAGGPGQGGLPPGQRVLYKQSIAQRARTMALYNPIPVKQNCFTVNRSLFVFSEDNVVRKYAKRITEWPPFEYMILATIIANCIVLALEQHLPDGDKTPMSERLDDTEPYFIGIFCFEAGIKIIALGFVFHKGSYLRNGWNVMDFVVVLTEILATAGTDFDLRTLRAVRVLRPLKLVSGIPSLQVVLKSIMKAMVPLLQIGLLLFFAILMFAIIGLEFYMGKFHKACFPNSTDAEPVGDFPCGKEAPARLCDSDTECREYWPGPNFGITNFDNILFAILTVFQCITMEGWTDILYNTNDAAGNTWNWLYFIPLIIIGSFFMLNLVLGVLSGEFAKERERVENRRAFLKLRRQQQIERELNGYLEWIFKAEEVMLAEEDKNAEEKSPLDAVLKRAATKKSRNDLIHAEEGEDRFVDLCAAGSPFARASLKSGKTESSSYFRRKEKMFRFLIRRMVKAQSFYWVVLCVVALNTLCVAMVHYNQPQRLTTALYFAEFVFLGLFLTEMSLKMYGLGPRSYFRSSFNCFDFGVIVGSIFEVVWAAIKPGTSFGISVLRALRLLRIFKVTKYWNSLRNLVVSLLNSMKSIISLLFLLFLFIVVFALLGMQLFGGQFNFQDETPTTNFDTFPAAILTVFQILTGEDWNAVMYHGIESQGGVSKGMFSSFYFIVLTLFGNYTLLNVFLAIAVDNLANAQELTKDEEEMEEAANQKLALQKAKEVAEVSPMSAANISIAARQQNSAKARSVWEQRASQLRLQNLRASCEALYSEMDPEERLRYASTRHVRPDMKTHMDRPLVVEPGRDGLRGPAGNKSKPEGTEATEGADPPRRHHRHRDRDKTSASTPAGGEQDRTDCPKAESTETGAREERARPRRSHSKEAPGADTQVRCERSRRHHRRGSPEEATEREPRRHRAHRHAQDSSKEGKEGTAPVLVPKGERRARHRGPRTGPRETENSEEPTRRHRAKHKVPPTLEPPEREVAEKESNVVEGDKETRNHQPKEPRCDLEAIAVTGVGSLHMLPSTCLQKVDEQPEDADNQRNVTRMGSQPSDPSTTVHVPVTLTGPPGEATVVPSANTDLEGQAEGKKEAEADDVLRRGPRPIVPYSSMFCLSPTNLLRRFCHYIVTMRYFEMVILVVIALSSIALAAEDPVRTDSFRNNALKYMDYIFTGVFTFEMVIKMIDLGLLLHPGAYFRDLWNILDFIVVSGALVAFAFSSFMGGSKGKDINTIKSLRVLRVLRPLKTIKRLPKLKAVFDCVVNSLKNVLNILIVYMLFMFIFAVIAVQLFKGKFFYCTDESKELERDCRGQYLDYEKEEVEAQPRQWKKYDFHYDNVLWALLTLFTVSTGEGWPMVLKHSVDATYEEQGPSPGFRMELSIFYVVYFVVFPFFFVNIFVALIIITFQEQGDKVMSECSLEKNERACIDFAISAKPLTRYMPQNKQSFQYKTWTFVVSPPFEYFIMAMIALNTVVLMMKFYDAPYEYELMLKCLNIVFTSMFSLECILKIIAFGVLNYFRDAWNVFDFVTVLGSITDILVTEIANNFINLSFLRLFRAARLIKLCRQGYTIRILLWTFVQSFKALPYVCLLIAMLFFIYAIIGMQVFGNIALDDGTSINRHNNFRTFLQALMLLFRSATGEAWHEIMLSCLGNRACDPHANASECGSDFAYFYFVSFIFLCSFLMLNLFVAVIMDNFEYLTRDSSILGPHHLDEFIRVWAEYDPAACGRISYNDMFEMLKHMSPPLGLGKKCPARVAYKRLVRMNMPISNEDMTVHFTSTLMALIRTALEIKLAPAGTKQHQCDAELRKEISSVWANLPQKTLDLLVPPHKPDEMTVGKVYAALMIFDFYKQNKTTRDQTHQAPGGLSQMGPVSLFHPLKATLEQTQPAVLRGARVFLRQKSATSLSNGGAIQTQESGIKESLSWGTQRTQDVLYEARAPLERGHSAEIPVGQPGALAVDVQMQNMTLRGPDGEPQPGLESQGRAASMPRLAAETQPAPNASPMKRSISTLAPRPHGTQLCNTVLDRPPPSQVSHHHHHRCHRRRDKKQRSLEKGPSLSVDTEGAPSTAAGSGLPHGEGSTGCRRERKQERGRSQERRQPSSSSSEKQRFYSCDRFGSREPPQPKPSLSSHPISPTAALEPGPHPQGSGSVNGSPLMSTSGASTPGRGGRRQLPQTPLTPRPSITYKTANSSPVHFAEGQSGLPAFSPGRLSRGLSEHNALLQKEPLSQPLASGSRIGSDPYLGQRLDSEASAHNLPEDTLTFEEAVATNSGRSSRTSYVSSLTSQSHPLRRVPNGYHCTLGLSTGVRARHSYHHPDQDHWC
Chain of D(1A) dopamine receptor (P21728 whole entry): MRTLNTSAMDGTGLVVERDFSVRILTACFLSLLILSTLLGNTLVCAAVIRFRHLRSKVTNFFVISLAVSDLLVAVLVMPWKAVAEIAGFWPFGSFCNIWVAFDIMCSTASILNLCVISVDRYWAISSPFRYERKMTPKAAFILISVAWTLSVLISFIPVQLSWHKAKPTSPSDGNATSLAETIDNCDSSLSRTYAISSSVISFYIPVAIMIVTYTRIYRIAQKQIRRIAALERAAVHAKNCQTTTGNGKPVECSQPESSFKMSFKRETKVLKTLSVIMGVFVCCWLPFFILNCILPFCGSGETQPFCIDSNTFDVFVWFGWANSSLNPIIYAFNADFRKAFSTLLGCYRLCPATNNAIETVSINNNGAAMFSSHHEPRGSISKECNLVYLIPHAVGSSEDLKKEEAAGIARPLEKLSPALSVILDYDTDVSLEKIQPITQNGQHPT
Chain of 5-hydroxytryptamine receptor 2B (P41595 whole entry): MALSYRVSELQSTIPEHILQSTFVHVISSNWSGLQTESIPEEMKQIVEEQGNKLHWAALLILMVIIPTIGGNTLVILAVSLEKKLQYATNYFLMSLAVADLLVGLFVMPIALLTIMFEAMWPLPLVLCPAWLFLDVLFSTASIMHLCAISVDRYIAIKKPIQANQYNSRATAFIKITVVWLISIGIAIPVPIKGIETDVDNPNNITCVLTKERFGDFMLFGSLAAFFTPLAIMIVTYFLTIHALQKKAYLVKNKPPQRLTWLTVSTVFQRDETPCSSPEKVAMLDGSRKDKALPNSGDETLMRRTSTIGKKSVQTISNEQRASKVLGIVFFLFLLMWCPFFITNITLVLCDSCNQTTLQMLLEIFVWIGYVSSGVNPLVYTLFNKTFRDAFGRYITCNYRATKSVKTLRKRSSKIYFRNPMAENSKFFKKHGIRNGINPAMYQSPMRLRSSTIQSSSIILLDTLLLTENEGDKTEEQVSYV

Regarding `C[N+](C)(C)CCOP(=O)([O-])OC[C@H](O)CO`, the AC50 (usually the concentration at which the activity in the assay is half-maximal) on Androgen receptor [1] is more than 30 µM.

As for `CN(C)Cc1nnc2n1-c1ccc(Cl)cc1C(c1ccccc1)=NC2` [ADINAZOLAM], on Androgen receptor [2], the AC50 was more than 10 µM.

Compound `CN(C)C/C=C/C(=O)Nc1cc2c(Nc3ccc(F)c(Cl)c3)ncnc2cc1O[C@H]1CCOC1` [AFATINIB] had an AC50 on Androgen receptor [1] of more than 30 µM.

At Androgen receptor [2], `Cc1ccccc1-n1c(CF)nc2ccc(N)cc2c1=O` [AFLOQUALONE] registered an AC50 of more than 30 µM.

Consider `CCC1(c2ccc(N)cc2)CCC(=O)NC1=O` (centres undefined) [AMINOGLUTETHIMIDE], for which the AC50 at Androgen receptor [1] was more than 30 µM.

With `O=C(/C=C/c1cccc(S(=O)(=O)Nc2ccccc2)c1)NO` [BELINOSTAT], the AC50 in experiment [3] was more than 10 µM; in [4], more than 10 µM; at Androgen receptor [2], more than 30 µM; on D(4) dopamine receptor it was more than 10 µM; on D(1A) dopamine receptor it was more than 10 µM; in [5], more than 10 µM. In addition, the AC50 in experiment [6] is more than 10 µM; at Glucagon receptor, more than 10 µM; in experiment [7], more than 30 µM; in experiment [8], more than 10 µM.

Consider `CC(O)(CS(=O)(=O)c1ccc(F)cc1)C(=O)Nc1ccc(C#N)c(C(F)(F)F)c1` (centres undefined) [BICALUTAMIDE], for which the AC50 in [3] is more than 10 µM; in [4], more than 10 µM; at D(4) dopamine receptor it was more than 10 µM; at D(1A) dopamine receptor, more than 10 µM; in experiment [5] it was more than 10 µM; in experiment [6], more than 30 µM. Moreover, the AC50 on Glucagon receptor is more than 30 µM; in experiment [7], more than 30 µM; in experiment [8] it was more than 10 µM.

For `O=C(O)COCCN1CCN(C(c2ccccc2)c2ccc(Cl)cc2)CC1` (centres undefined) [CETIRIZINE], the AC50 was more than 10 µM in [3]; more than 10 µM in experiment [4]; more than 10 µM on D(4) dopamine receptor; more than 30 µM in [6]; more than 30 µM on Glucagon receptor; more than 30 µM in experiment [7]. Also, the AC50 in experiment [8] was more than 10 µM.

With `CC(=O)O[C@]1(C(C)=O)CC[C@H]2[C@@H]3C=C(Cl)C4=CC(=O)[C@@H]5C[C@@H]5[C@]4(C)[C@H]3CC[C@@]21C` [CYPROTERONE ACETATE], the AC50 in experiment [4] was more than 10 µM; on D(1A) dopamine receptor, more than 10 µM; in experiment [5] it was more than 10 µM; in [7] it was more than 30 µM; in [8] it was more than 10 µM.

As for `C[C@@H]1C[C@H]2[C@@H]3C[C@H](F)C4=CC(=O)C=C[C@]4(C)[C@@]3(F)[C@@H](O)C[C@]2(C)[C@@]1(OC(=O)c1ccco1)C(=O)SCF` [FLUTICASONE FUROATE], the AC50 (in [3]; in [4]; on D(4) dopamine receptor; at D(1A) dopamine receptor; in [5]; in experiment [6]) was more than 10 µM each time. For the same compound, the AC50 (on Glucagon receptor; in experiment [8]) was more than 10 µM each time.

For the compound `COc1ccc([C@@H]2CC(=O)c3c(O)cc(O)cc3O2)cc1O` [HESPERETIN], the AC50 on Androgen receptor [2] is more than 10 µM.

The compound `CNCCc1ccc(OC(=O)C(C)C)c(OC(=O)C(C)C)c1` [IBOPAMINE] had an AC50 on Androgen receptor [1] of more than 30 µM.

In the case of `CN(C)CCCN1c2ccccc2CCc2ccccc21` [IMIPRAMINE], the AC50 is 0.239 µM in [3]; more than 10 µM in [4]; 5.56 µM at D(4) dopamine receptor; 3.2 µM on D(1A) dopamine receptor; 0.319 µM in experiment [5]; more than 30 µM in [6]. Besides, the values for the AC50 (on Glucagon receptor; in [7]; in [8]) were more than 30 µM, more than 30 µM and more than 10 µM, respectively.

At Androgen receptor [1], `CCOC(=O)C1=C(C)NC(C)=C(C(=O)OCC)C1c1ccccc1/C=C/C(=O)OC(C)(C)C` [LACIDIPINE] yielded an AC50 of more than 30 µM.

At Androgen receptor [2], `C=C1c2cccc(O)c2C(=O)C2=C(O)[C@]3(O)C(=O)C(C(N)=O)=C(O)[C@@H](N(C)C)[C@@H]3[C@@H](O)[C@H]12` [METHACYCLINE] returned an AC50 of more than 30 µM.

Take `CN(Cc1cnc2nc(N)nc(N)c2n1)c1ccc(C(=O)N[C@@H](CCC(=O)O)C(=O)O)cc1` [METHOTREXATE]: the AC50 in experiment [4] is more than 10 µM; on Androgen receptor [2], more than 30 µM; at D(1A) dopamine receptor it was more than 10 µM; in [5] it was more than 10 µM; in experiment [6], more than 30 µM; at Glucagon receptor, more than 30 µM. The AC50 in experiment [7] is more than 30 µM; in experiment [8] it was more than 10 µM.

Turning to `CC(C)c1cccc(C(C)C)c1O` [PROPOFOL], on Androgen receptor [1], the AC50 was more than 30 µM.

For the compound `CN[C@@H](C)[C@@H](O)c1ccccc1` [PSEUDOEPHEDRINE], the AC50 in experiment [3] was more than 10 µM; in experiment [4] it was more than 10 µM; at D(4) dopamine receptor it was more than 10 µM; at D(1A) dopamine receptor, more than 10 µM; in experiment [6] it was more than 30 µM; at Glucagon receptor, more than 30 µM. The AC50 in experiment [7] is more than 30 µM; in experiment [8], more than 10 µM.

`CCCN1CC(NS(=O)(=O)N(CC)CC)CC2Cc3c(O)cccc3CC21` (centres undefined) [QUINAGOLIDE]: the concentration at half-maximal activity (AC50) at Androgen receptor [1] was more than 30 µM; in experiment [5] it was 0.324 µM.

Turning to `O=C1OC(OC(=O)c2cccnc2Nc2cccc(C(F)(F)F)c2)c2ccccc21` (centres undefined) [TALNIFLUMATE], the AC50 at Androgen receptor [1] was more than 30 µM.

On to `O=S1(=O)CCN(CN2CCS(=O)(=O)NC2)CN1` [TAUROLIDINE], for which the AC50 at Androgen receptor [1] was more than 30 µM.

On Androgen receptor [1], `CCOC(=O)c1c(CSc2ccccc2)n(C)c2cc(Br)c(O)c(CN(C)C)c12` [UMIFENOVIR] showed an AC50 of more than 30 µM.
